Values of other authors as cited in patent US20260191818A1 (University of South Carolina, priority 2022, published 2026).

Tested on: ApcMin/+ model of intestinal cancer
Conditions: 25 mg/kg of quercetin; cited from earlier work

Compound: O=c1c(O)c(-c2ccc(O)c(O)c2)oc2cc(O)cc(O)c12 [quercetin, 3,4,5,7-pentahydroxylflavone]
- muscle mass and strength: preserved muscle mass and strength
